The record followed here is DBAASP.

≈ marks a conversion by molar mass, not a printed value. Bounds are passed on as bounds.

Experiment in all cases: ≥ marks a high value that may be exact or a test limit, other limits are often not marked, values filed in µg/mL are converted to µM
The test system of test [1] is Staphylococcus aureus ATCC 2592.
For test [2], the system named is Candida albicans ATCC 2002.
For test [3], the system named is Bacillus licheniformis X39.
Test [4] relates to Serratia rubidaea X01.
In test [5] the test system is Staphylococcus carnosus KHS.
Test [6] deals with Rhodococcus rhodochrous X15.
In test [7] the test system is Psychrobacter faecalis X29.
The test system of test [8] is Enterococcus faecalis CDC 21.
The test system of test [9] is Pseudomonas aeruginosa MR3007.
For test [10], the system named is Pseudomonas aeruginosa SBI-N.
Test [11] relates to Escherichia coli mcr106.
Test [12] relates to Enterococcus faecium.
In test [13] the test system is Escherichia coli BAS 849.
The subject of test [14] is Escherichia coli ML-35p.
In test [15] the test system is Staphylococcus aureus 930918-3.
The subject of test [16] is Staphylococcus aureus 28841.
Test [17] deals with Pseudomonas aeruginosa MR2123.
Test [18] concerns Staphylococcus aureus 30371.
Test [19] deals with Salmonella enterica serovar typhimurium MS7953s.
Test [20] deals with Listeria monocytogenes EGD.
The test system of test [21] is Enterococcus faecium 94-132.
In test [22] the test system is Salmonella enterica subsp. enterica serovar Typhimurium ATCC 14028s.
The subject of test [23] is Klebsiella pneumoniae.
For test [24], the system named is Pseudomonas aeruginosa 253.
Test [25] relates to Pseudomonas aeruginosa 919.
The subject of test [26] is Staphylococcus aureus ATCC 25923.
The test system of test [27] is Pseudomonas aeruginosa H103.
Test [28] has as its system Escherichia coli UB1005.
For test [29], the system named is Salmonella enterica serovar Typhimurium.
Test [30] deals with Pseudomonas aeruginosa 910.
In test [31] the test system is Pseudomonas aeruginosa PAO1.
Test [32] has as its system Enterococcus faecalis ATCC 29212.
The subject of test [33] is Staphylococcus epidermidis.
The subject of test [34] is Candida albicans.
The test system of test [35] is Escherichia coli ML-35.
Test [36] concerns Candida albicans 820.
Test [37] deals with Bibersteinia trehalosi.
In test [38] the test system is Aspergillus fumigatus.
Test [39] relates to Salmonella enterica subsp. arizonae.
Test [40] relates to Pasteurella multocida.
Test [41] has as its system Staphylococcus aureus.
Test [42] deals with Corynebacterium pseudotuberculosis ATCC 19410.
For test [43], the system named is Mannheimia haemolytica Serovar 1.
Test [44] relates to Mannheimia haemolytica Serovar 6.
Test [45] concerns Mannheimia haemolytica Serovar 2.

Regarding `CC[C@H](C)[C@H](NC(=O)[C@H](CCC(=O)O)NC(=O)[C@H](CCCCN)NC(=O)[C@H](C)NC(=O)[C@H](C)NC(=O)[C@@H](NC(=O)[C@H](CCCCN)NC(=O)CNC(=O)[C@H](Cc1ccccc1)NC(=O)[C@H](CC(=O)O)NC(=O)[C@H](CCCCN)NC(=O)[C@H](CC(C)C)NC(=O)[C@@H](NC(=O)[C@H](CO)NC(=O)[C@H](CCSC)NC(=O)[C@H](CC(C)C)NC(=O)CN)[C@@H](C)O)[C@@H](C)O)C(=O)N[C@@H](C)C(=O)N[C@@H](CCC(N)=O)C(=O)N[C@@H](CO)C(=O)N[C@@H](CC(C)C)C(=O)N[C@@H](CC(C)C)C(=O)N[C@@H](CO)C(=O)N[C@H](C(=O)N[C@@H](C)C(=O)N[C@@H](CO)C(=O)N[C@H]1CSSC[C@@H](C(=O)O)NC(=O)[C@H]([C@@H](C)O)NC(=O)[C@H](CCCCN)NC(=O)[C@H](C)NC(=O)[C@H](CC(C)C)NC(=O)[C@H](CCCCN)NC1=O)[C@@H](C)O` [GLMSTLKDFGKTAAKEIAQSLLSTASCKLAKTC], the minimum inhibitory concentration (MIC) in test [1] was 3.66 µM (≈ 12.5 µg/mL); in test [2], at least 58.5 µM; in test [3], 14.6 µM (≈ 50 µg/mL); in test [4], 29.3 µM (≈ 99.9 µg/mL); in test [5] it was 1.84 µM (≈ 6.3 µg/mL); in test [6] it was 0.468 µM (≈ 1.6 µg/mL). In [7], this compound came in with a minimal inhibitory concentration (MIC) of 1.84 µM (≈ 6.3 µg/mL).
As to `CC[C@H](C)[C@H](NC(=O)[C@H](CCCCN)NC(=O)CNC(=O)[C@H](CC(C)C)NC(=O)[C@H](Cc1ccccc1)NC(=O)[C@H](CCC(N)=O)NC(=O)[C@H](Cc1ccccc1)NC(=O)[C@@H](N)C(C)C)C(=O)N[C@H](C(=O)N[C@@H](CCCCN)C(=O)N[C@@H](CCCCN)C(=O)N[C@H](C(=O)NCC(=O)N[C@@H](CC(N)=O)C(=O)N[C@@H](Cc1ccccc1)C(=O)N[C@H](C(=O)N[C@@H](CCCCN)C(=O)NCC(=O)N[C@@H](Cc1ccccc1)C(=O)N[C@@H](CO)C(=O)N[C@@H](CCCCN)C(=O)N[C@H](C(=O)N[C@@H](Cc1ccccc1)C(=O)O)C(C)C)C(C)C)C(C)C)[C@@H](C)CC` [VFQFLGKIIKKVGNFVKGFSKVF], the MIC stood at 0.988 µM (≈ 2.6 µg/mL) in test [8]; 0.342 µM (≈ 0.9 µg/mL) in test [9]; 0.342 µM (≈ 0.9 µg/mL) in test [10]; 0.266 µM (≈ 0.7 µg/mL) in test [11]; 0.19 µM (≈ 0.5 µg/mL) in test [12]; 0.266 µM (≈ 0.7 µg/mL) in test [13]. Moreover, the MIC in [14] is 0.494 µM (≈ 1.3 µg/mL); in test [15] it was 1.48 µM (≈ 3.9 µg/mL); in test [16], 0.95 µM (≈ 2.5 µg/mL); in [17] it was 0.266 µM (≈ 0.7 µg/mL); in test [18] it was 2.2 µM (≈ 5.8 µg/mL); in [19] it was 0.494 µM (≈ 1.3 µg/mL). The MIC in test [20] was found to be 0.152 µM (≈ 0.4 µg/mL); in [21], 0.114 µM (≈ 0.3 µg/mL); in test [22], 0.57 µM (≈ 1.5 µg/mL); in test [23] it was 1.06 µM (≈ 2.8 µg/mL).
Consider `CC[C@H](C)[C@H](NC(=O)[C@H](CCCN=C(N)N)NC(=O)[C@H](C)NC(=O)[C@H](CC(C)C)NC(=O)[C@@H](N)CCCN=C(N)N)C(=O)N[C@H](C(=O)N[C@H](C(=O)N[C@H](C(=O)N[C@@H](CCCN=C(N)N)C(=O)N[C@H](C(=O)N[C@@H](CCCN=C(N)N)C(=O)N[C@@H](CCCN=C(N)N)C(N)=O)C(C)C)[C@@H](C)CC)C(C)C)C(C)C` [RLARIVVIRVRR], for which the MIC in test [24] was at least 64 µM; in test [25], at least 32 µM; in test [26], 5.31 µM (≈ 8 µg/mL); in [27] it was 10.6 µM (≈ 16 µg/mL); in test [28], 5.31 µM (≈ 8 µg/mL); in test [29] it was 5.31 µM (≈ 8 µg/mL). In addition, the MIC was at least 64 µM in [30]; 16 µM (≈ 24.1 µg/mL) in test [31]; 5.31 µM (≈ 8 µg/mL) in test [32]; 1.33 µM (≈ 2 µg/mL) in test [33]; 5.31 µM (≈ 8 µg/mL) in test [34].
Regarding `CC[C@H](C)[C@@H]1NC(=O)[C@@H]2CSSC[C@H](NC(=O)[C@H](Cc3ccc(O)cc3)NC(=O)[C@@H](NC(=O)[C@H](CC(C)C)NC(=O)[C@H](CCCNC(=N)N)NC(=O)CNC(=O)CNC(=O)[C@@H](N)CCCNC(=N)N)CSSC[C@@H](C(=O)N[C@H](C(N)=O)C(C)C)NC1=O)C(=O)N[C@@H](CCCNC(=N)N)C(=O)N[C@@H](CCCNC(=N)N)C(=O)N[C@@H](CCCNC(=N)N)C(=O)N[C@@H](Cc1ccccc1)C(=O)N2` [RGGRLCYCRRRFCICV], the MIC in test [35], in test [36] and in test [20] was 12.7 µM (≈ 24.9 µg/mL) each time.
On to `CC[C@H](C)[C@H](NC(=O)[C@H](CCCCN)NC(=O)[C@H](CCCN=C(N)N)NC(=O)CNC(=O)[C@H](CC(C)C)NC(=O)[C@H](C)NC(=O)[C@H](CCCN=C(N)N)NC(=O)[C@H](CC(C)C)NC(=O)CNC(=O)[C@@H](N)CCCN=C(N)N)C(=O)N[C@@H](C)C(=O)N[C@@H](Cc1cnc[nH]1)C(=O)NCC(=O)N[C@H](C(=O)N[C@@H](CCCCN)C(=O)N[C@@H](C)C(=O)N[C@@H](Cc1ccc(O)cc1)C(=O)NCC(=O)O)C(C)C` [RGLRALGRKIAHGVKAYG], for which the MIC in [37] was 10.4 µM (≈ 20 µg/mL); in [38] it was 20.8 µM (≈ 40 µg/mL); in [39], 10.4 µM (≈ 20 µg/mL); in test [40], 10.4 µM (≈ 20 µg/mL); in test [41], over 10.4 µM; in [42], 10.4 µM (≈ 20 µg/mL). Moreover, the MIC was 5.2 µM (≈ 10 µg/mL) in test [31]; 5.2 µM (≈ 10 µg/mL) in test [43]; 10.4 µM (≈ 20 µg/mL) in [44]; over 10.4 µM in [23]; 4.32 µM (≈ 8.3 µg/mL) in test [45].

Usually MIC stands for the lowest concentration found to suppress growth. Low readings indicate a more susceptible organism, high ones a less susceptible organism.
